The values that follow come from ChEMBL document CHEMBL3739387, “Discovery and SAR of Novel and Selective Inhibitors of Urokinase Plasminogen Activator (uPA) with an Imidazo[1,2-a]pyridine Scaffold” (J Med Chem, 2015).

pIC50: −log10 of the molar value.

The assay has as its target Urokinase-type plasminogen activator (Homo sapiens, UniProt P00749). The assay can be described thus: Inhibition of human uPA using pyro-Glu-Gly-Arg-pNA as substrate assessed as para-nitroaniline release from substrate measured for 5 mins by spectrophotometric assay.
Take `CCCCNC(=O)c1ccn2c(NCc3ccc(NC(=N)N)cc3)c(-c3cccnc3)nc2c1`: the pIC50 (commonly −log10 of the IC50, conventionally taken in molar units) was 5.16.

For the compound `N=C(N)Nc1ccc(CNc2c(CN)nc3ccccn23)cc1`, the pIC50 is 5.03.

As to `N=C(N)Nc1ccc(CCNc2c(-c3cccc(Cl)c3)nc3cnccn23)cc1`, the pIC50 was 4.27.

As for `Cc1cccn2c(NCc3ccc(NC(=N)N)cc3)c(-c3cccnc3)nc12`, the pIC50 is 4.56.

In the case of `N=C(N)Nc1ccc(CNc2c(-c3ccc(F)cc3)nc3ccccn23)cc1`, the negative-log IC50 (pIC50) is 3.90.

As for `NCCOc1c(Cl)cc(Nc2cnc3ccccn23)cc1Cl`, the pIC50 was 3.30.

As for `CCc1nc2ccccn2c1NCCc1ccc(NC(=N)N)cc1`, the pIC50 is 3.82.

In the case of `N=C(N)Nc1ccc(CNc2c(-c3cc(Cl)cc(Cl)c3)nc3ccccn23)cc1`, the pIC50 was 4.00.

For the compound `N=C(N)NCCCCNc1cnc2ccccn12`, the pIC50 is 3.70.

As to `N=C(N)Nc1ccc(CNc2c(Cc3cccc(Cl)c3)nc3ccccn23)cc1`, the negative-log IC50 (pIC50) is 4.74.

Regarding `CCc1ccc(-c2nc3ccccn3c2NCc2ccc(NC(=N)N)cc2)cc1`, the pIC50 is 4.19.

For the compound `N=C(N)Nc1ccc(CNc2c(-c3cccnc3)nc3ccc(C(F)(F)F)cn23)cc1`, the negative logarithm of the IC50 (pIC50) is 3.70.

Turning to `Cc1ccc2nc(-c3cccnc3)c(NCc3ccc(NC(=N)N)cc3)n2c1`, the negative-log IC50 (pIC50) was 4.62.

`N=C(N)Nc1ccc(CNc2c(-c3cccnc3)nc3cc(C(=O)O)ccn23)cc1`: the pIC50 was 4.57.

Take `NCCOc1ccc(Nc2cnc3ccccn23)cc1`: the negative-log IC50 (pIC50) is less than 3.00.

`NCc1ccc(Nc2cnc3ccccn23)cc1`: the negative logarithm of the IC50 (pIC50) is less than 3.30.

For `N=C(N)Nc1ccc(CNc2c(-c3cccc(F)c3)nc3ccccn23)cc1`, the negative-log IC50 (pIC50) is 4.00.

As to `N=C(N)Nc1ccc(CNc2c(-c3cccnc3)nc3ccc(C(N)=O)cn23)cc1`, the negative-log IC50 (pIC50) is 4.56.

As for `Clc1ccc(OCCNc2cnc3ccccn23)c(Cl)c1`, the pIC50 is 3.60.
